How the values were obtained:
Format in all cases: functional, cell-based
FaDu = assay: Cytotoxicity against human FADU cells after 24 hrs by MTT assay
SN12C = assay: Cytotoxicity against human SN12C cells after 24 hrs by MTT assay
HCT-116 = assay: Cytotoxicity against human HCT116 cells after 24 hrs by MTT assay; settings: HCT-116, 24 h
MKN-45 = assay: Cytotoxicity against human MKN45 cells after 24 hrs by MTT assay; settings: MKN-45, 24 h

SMILES | IC50 (FaDu) [µM] | IC50 (SN12C) [µM] | IC50 (HCT-116) [µM] | IC50 (MKN-45) [µM]
CC(=O)O[C@@H](C=O)[C@]1(C)CC[C@H](C(C)C)[C@@H]1c1cc([C@]2(O)Cc3cc(O)c(=O)c(C)c4c3[C@@H](O2)[C@H](O)[C@]2(C)CC[C@H](C(C)C)[C@H]42)cc(O)c(=O)c1C [GUKULENIN A] | 0.057 | 0.092 | 0.062 | 0.13
CC(=O)O[C@@H](CO)[C@]1(C)CC[C@H](C(C)C)[C@@H]1c1cc([C@]2(O)Cc3cc(O)c(=O)c(C)c4c3[C@@H](O2)[C@H](O)[C@]2(C)CC[C@H](C(C)C)[C@H]42)cc(O)c(=O)c1C [GUKULENIN B] | 0.63 | 0.61 | 0.55 | 0.72

Reference: ChEMBL document CHEMBL1157088, “Gukulenins A and B, cytotoxic tetraterpenoids from the marine sponge Phorbas gukulensis” (J Nat Prod, 2010)
